Assays:
Type in all cases: cell-based
Conditions in all cases: compounds at 50 nM and 500 nM, 24 hours
IKZF2 = biological target: T1, IKZF2 (Homo sapiens, UniProt Q96SW2+Q9UKS7); test: Western-blot assay, substrate protein degradation in hPBMCs: IKZF2
T1 construct: effects of the compounds of the present disclosure on the expression of target proteins in cells; endogenous in cells; host or cells: human PBMCs (hPBMCs)

WEE1 = biological target: T2, WEE1 (Homo sapiens, UniProt P30291+Q96SW2); test: Western-blot assay, substrate protein degradation in hPBMCs: WEE1
T2 construct: effects of the compounds of the present disclosure on the expression of target proteins in cells; endogenous in cells; host or cells: human PBMCs (hPBMCs)
T2 sequence (P30291 whole entry): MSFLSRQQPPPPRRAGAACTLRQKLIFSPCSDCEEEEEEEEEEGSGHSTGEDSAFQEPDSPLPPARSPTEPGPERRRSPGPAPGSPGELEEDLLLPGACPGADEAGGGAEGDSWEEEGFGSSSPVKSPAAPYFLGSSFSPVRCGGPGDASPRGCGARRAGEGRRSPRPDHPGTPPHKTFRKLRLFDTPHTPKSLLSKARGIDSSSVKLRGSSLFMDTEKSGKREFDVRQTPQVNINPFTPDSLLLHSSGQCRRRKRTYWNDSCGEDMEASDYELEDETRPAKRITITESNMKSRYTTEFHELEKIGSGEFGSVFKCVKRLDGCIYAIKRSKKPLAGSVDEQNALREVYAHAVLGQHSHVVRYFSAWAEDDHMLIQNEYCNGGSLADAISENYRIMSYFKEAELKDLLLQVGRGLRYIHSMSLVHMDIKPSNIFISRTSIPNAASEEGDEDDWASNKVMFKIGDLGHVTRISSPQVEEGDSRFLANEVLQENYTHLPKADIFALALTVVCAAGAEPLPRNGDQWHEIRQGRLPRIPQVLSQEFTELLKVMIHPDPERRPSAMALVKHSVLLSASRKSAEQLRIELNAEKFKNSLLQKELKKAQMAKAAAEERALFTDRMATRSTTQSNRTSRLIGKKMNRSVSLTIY
T2 sequence (Q96SW2 whole entry): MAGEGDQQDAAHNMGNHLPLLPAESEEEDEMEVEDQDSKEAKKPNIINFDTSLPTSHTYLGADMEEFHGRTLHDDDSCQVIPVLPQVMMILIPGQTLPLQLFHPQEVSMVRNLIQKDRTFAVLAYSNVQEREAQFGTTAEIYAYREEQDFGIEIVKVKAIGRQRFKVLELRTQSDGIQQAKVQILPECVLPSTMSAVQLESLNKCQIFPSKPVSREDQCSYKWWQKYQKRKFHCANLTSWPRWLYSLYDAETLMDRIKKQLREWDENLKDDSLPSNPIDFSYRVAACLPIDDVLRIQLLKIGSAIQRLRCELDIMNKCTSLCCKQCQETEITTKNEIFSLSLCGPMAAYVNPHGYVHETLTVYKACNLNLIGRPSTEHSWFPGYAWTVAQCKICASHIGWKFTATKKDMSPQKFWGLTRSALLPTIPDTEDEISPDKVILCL
T2 sequence (Q16531 whole entry partner): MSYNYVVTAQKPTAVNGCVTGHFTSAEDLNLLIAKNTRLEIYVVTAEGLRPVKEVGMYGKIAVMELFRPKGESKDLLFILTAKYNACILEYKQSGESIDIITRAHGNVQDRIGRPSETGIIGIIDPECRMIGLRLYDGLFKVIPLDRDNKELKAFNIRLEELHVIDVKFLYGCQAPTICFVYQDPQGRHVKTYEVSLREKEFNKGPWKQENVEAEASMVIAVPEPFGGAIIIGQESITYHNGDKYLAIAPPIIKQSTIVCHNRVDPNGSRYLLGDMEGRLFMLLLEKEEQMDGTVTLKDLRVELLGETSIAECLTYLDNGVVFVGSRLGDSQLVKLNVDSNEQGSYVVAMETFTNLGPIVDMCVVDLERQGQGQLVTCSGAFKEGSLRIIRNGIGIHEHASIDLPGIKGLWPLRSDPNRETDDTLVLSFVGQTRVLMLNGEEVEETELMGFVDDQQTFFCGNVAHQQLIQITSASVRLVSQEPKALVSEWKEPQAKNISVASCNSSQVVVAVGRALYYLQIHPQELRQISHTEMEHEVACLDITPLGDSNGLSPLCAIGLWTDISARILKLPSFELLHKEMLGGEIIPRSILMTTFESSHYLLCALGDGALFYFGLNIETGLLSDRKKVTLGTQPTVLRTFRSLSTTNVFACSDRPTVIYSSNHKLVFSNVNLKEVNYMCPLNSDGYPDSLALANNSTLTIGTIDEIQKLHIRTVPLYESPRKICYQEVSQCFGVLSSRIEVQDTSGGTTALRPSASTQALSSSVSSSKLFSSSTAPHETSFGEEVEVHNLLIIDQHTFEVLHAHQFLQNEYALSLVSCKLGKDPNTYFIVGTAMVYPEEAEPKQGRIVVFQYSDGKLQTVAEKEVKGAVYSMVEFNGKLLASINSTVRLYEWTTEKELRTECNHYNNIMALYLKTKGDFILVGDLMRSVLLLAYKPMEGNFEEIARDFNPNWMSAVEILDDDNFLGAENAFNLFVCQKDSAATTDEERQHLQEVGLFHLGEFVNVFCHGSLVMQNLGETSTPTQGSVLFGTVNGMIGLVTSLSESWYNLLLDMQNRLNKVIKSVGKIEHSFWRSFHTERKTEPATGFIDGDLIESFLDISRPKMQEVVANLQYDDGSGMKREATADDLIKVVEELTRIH

IKZF1 = biological target: T3, IKZF1 (Homo sapiens, UniProt Q13422+Q96SW2); test: Western-blot assay, substrate protein degradation in hPBMCs: IKZF1
T3 construct: effects of the compounds of the present disclosure on the expression of target proteins in cells; endogenous in cells; host or cells: human PBMCs (hPBMCs)
T3 sequence (Q13422 whole entry): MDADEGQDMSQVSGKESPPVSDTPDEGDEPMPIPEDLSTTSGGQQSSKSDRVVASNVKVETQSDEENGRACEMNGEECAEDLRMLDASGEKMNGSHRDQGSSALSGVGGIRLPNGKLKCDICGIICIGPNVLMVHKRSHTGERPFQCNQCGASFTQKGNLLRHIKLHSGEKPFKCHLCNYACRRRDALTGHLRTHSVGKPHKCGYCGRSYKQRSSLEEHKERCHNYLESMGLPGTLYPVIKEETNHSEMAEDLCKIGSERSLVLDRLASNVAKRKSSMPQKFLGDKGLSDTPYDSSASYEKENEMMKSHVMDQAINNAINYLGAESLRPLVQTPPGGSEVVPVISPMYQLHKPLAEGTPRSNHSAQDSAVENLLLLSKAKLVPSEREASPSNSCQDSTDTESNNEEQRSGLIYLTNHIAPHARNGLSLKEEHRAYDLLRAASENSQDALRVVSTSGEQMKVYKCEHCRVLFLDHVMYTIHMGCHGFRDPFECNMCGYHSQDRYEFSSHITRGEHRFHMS
T3 sequence (Q96SW2 whole entry): as the sequence (Q96SW2 whole entry) above
T3 sequence (Q16531 whole entry partner): as the sequence (Q16531 whole entry partner) above

GSPT1 = biological target: T4, GSPT1 (Homo sapiens, UniProt P15170+Q96SW2); test: Western-blot assay, substrate protein degradation in hPBMCs: GSPT1
T4 construct: effects of the compounds of the present disclosure on the expression of target proteins in cells; endogenous in cells; host or cells: human PBMCs (hPBMCs)
T4 sequence (P15170 whole entry): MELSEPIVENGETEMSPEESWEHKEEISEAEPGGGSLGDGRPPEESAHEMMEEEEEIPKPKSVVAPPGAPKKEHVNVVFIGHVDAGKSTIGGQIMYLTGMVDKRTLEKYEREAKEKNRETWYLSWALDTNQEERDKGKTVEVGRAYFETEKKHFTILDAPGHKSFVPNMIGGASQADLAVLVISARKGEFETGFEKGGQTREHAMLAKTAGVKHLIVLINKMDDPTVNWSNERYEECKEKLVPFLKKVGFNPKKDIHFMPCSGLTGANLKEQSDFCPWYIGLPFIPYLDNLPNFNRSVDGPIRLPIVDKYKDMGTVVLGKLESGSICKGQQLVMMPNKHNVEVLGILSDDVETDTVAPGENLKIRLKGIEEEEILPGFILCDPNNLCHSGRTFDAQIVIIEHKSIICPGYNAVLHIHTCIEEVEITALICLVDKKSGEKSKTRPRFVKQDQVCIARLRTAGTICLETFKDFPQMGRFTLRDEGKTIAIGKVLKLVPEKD
T4 sequence (Q96SW2 whole entry): as the sequence (Q96SW2 whole entry) above
T4 sequence (Q16531 whole entry partner): as the sequence (Q16531 whole entry partner) above

IKZF3 = biological target: T5, IKZF3 (Homo sapiens, UniProt Q96SW2+Q9UKT9); test: Western-blot assay, substrate protein degradation in hPBMCs: IKZF3
T5 construct: effects of the compounds of the present disclosure on the expression of target proteins in cells; endogenous in cells; host or cells: human PBMCs (hPBMCs)

CK1α = biological target: T6, CK1α (Homo sapiens, UniProt P48729+Q96SW2); test: Western-blot assay, substrate protein degradation in hPBMCs: CK1α
T6 construct: effects of the compounds of the present disclosure on the expression of target proteins in cells; endogenous in cells; host or cells: human PBMCs (hPBMCs)
T6 sequence (P48729 whole entry): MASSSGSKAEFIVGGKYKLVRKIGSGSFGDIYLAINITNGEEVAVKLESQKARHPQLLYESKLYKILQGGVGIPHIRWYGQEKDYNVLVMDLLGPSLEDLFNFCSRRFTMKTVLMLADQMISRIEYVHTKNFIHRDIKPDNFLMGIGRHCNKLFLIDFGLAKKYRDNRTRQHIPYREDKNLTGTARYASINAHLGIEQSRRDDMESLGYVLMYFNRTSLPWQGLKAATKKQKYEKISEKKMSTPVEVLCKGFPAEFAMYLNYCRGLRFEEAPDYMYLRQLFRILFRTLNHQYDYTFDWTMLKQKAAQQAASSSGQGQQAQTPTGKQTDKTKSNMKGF
T6 sequence (Q96SW2 whole entry): as the sequence (Q96SW2 whole entry) above
T6 sequence (Q16531 whole entry partner): as the sequence (Q16531 whole entry partner) above

T1 sequence (Q9UKS7 whole entry): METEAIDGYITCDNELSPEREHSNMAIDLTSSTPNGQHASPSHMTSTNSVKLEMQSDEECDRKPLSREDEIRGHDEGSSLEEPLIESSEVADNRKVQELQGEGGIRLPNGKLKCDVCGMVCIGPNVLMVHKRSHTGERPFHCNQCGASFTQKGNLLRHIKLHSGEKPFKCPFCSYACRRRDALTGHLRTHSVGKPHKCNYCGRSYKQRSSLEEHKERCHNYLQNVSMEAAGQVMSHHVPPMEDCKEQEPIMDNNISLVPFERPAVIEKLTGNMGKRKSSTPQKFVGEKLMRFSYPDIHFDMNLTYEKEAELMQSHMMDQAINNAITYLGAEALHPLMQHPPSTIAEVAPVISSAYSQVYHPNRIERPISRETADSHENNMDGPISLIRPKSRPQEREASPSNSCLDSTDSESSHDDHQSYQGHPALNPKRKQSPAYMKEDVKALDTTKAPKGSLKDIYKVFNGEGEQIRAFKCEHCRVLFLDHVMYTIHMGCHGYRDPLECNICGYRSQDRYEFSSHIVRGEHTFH
T1 sequence (Q96SW2 whole entry): as the sequence (Q96SW2 whole entry) above
T1 sequence (Q16531 whole entry partner): as the sequence (Q16531 whole entry partner) above

Compound | IKZF2 substrate protein remaining % (IKZF2) | WEE1 substrate protein remaining % (WEE1) | IKZF1 substrate protein remaining % (IKZF1) | GSPT1 substrate protein remaining % (GSPT1) | IKZF3 substrate protein remaining % (IKZF3) | CK1α substrate protein remaining % (CK1α)
O=C1CCN(N2Cc3cc(CN4CCN(c5cnnc(Cl)c5Cl)CC4)ccc3C2=O)C(=O)N1 [GT-07029, 1-(5-((4-(5,6-dichloropyridazin-4-yl)piperazin-1-yl)methyl)-1-oxoisoindolin-2-yl)dihydropyrimidine-2,4(1H,3H)-dione] | A ("A" is defined as 0% ≤ substrate protein remaining % ≤ 80%) | A ("A" is defined as 0% ≤ substrate protein remaining % ≤ 80%) | B ("B" is defined as 80%< substrate protein remaining %≤ 100%) | A ("A" is defined as 0% ≤ substrate protein remaining % ≤ 80%) | B ("B" is defined as 80%< substrate protein remaining %≤ 100%) | B ("B" is defined as 80%< substrate protein remaining %≤ 100%)
O=C1CCN(N2Cc3cc(CN4CCN(c5cc(Cl)nnc5Cl)CC4)ccc3C2=O)C(=O)N1 [GT-07030, 1-(5-((4-(3,6-dichloropyridazin-4-yl)piperazin-1-yl)methyl)-1-oxoisoindolin-2-yl)dihydropyrimidine-2,4(1H,3H)-dione] | A ("A" is defined as 0% ≤ substrate protein remaining % ≤ 80%) | B ("B" is defined as 80%< substrate protein remaining %≤ 100%) | B ("B" is defined as 80%< substrate protein remaining %≤ 100%) | B ("B" is defined as 80%< substrate protein remaining %≤ 100%) | B ("B" is defined as 80%< substrate protein remaining %≤ 100%) | B ("B" is defined as 80%< substrate protein remaining %≤ 100%)
O=C1CCN(N2Cc3cc(CN4CCN(c5ncncn5)CC4)ccc3C2=O)C(=O)N1 [GT-07031, 1-(5-((4-(1,3,5-triazin-2-yl)piperazin-1-yl)methyl)-1-oxoisoindolin-2-yl)dihydropyrimidine-2,4(1H,3H)-dione] | B ("B" is defined as 80%< substrate protein remaining %≤ 100%) | B ("B" is defined as 80%< substrate protein remaining %≤ 100%) | A ("A" is defined as 0% ≤ substrate protein remaining % ≤ 80%) | A ("A" is defined as 0% ≤ substrate protein remaining % ≤ 80%) | A ("A" is defined as 0% ≤ substrate protein remaining % ≤ 80%) | A ("A" is defined as 0% ≤ substrate protein remaining % ≤ 80%)
O=C1CCN(N2Cc3cc(CN4CCN(c5c(Cl)cncc5Cl)CC4)ccc3C2=O)C(=O)N1 [GT-07032, 1-(5-((4-(3,5-dichloropyridin-4-yl)piperazin-1-yl)methyl)-1-oxoisoindolin-2-yl)dihydropyrimidine-2,4(1H,3H)-dione] | B ("B" is defined as 80%< substrate protein remaining %≤ 100%) | B ("B" is defined as 80%< substrate protein remaining %≤ 100%) | B ("B" is defined as 80%< substrate protein remaining %≤ 100%) | A ("A" is defined as 0% ≤ substrate protein remaining % ≤ 80%) | B ("B" is defined as 80%< substrate protein remaining %≤ 100%) | B ("B" is defined as 80%< substrate protein remaining %≤ 100%)

— patent publication EP4722207A1, “OXOISOINDOLINYL-SUBSTITUTED TETRAHYDROPYRIMIDINEDIONE DERIVATIVE AND USE THEREOF” (Gluetacs Therapeutics (Shanghai) Co., Ltd., priority 2023, dated 2024)
